SMILES strings stand for the structures.

For one assay, the target named is Escherichia coli DNA gyrase A/B tetramer (Escherichia coli (strain K12), UniProt P0AES4+P0AES6). Description: DNA gyrase supercoiling activity fluorescence polarisation assay. The format is biochemical.
Conditions: not given
In short, it runs like this:
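Supercoiling reactions quenched with 40 nM 5′-BODIPY-FL triplex-forming oligonucleotide probe in pH 3.5 NaCl/sodium acetate buffer; after 60 min, fluorescence anisotropy read (ex 485/em 535 nm). IC50 by nonlinear regression, normalised to 0.8% DMSO (100% activity) and 5 μM ciprofloxacin (0% activity).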
By IC50 is commonly meant the point on the concentration scale where inhibition reaches its midpoint. In turn, `CC(C)NC(=O)c1noc2c(Cl)c3c(nc12)CC1(C(=O)NC(=O)NC1=O)[C@H]1[C@H](C)O[C@H](C)CN31` (relative stereo) [Example 127, (2R,4S,4aS)-rel-Chloro-N-isopropyl-2,4-dimethyl-2′,4′,6′-trioxo-2,2′,3′,4,4a,4′,6,6′-octahydro-1H,1′H-spiro[isoxazolo[4,5-g][1,4]oxazino[4,3-a][1,5]naphthyridine-5,5′-pyrimidine]-8-carboxamide] had an IC50 of 19000 nM.

The same assay, now with this note: 5 nM enzyme, relaxed plasmid, 0.3 mM ATP, ambient temperature; read-out: E. coli DNA gyrase supercoiling IC50.
For `C[C@@H]1CN2c3c(nc4c(-c5cncs5)noc4c3Cl)CC3(C(=O)NC(=O)NC3=O)[C@H]2[C@H](C)O1` (relative stereo) [Example 115, (2R,4S,4aS)-rel-11-chloro-2,4-dimethyl-8-(thiazol-5-yl)-2,4,4a,6-tetrahydro-1H,1′H-spiro[isoxazolo[4,5-g][1,4]oxazino[4,3-a][1,5]naphthyridine-5,5′-pyrimidine]-2′,4′,6′(3′H)-trione], the IC50 was found to be 1100 nM.

Regarding `C[C@@H]1CN2c3c(nc4c(-c5sc(Cl)nc5Cl)noc4c3Cl)CC3(C(=O)NC(=O)NC3=O)[C@H]2[C@H](C)O1` (relative stereo) [Example 116, (2R,4S,4aS)-rel-11-chloro-2,4-dimethyl-8-(2,4-dichlorothiazol-5-yl)-2,4,4a,6-tetrahydro-1H,1′H-spiro[isoxazolo[4,5-g][1,4]oxazino[4,3-a][1,5]naphthyridine-5,5′-pyrimidine]-2′,4′,6′(3′H)-trione], the IC50 came to 2000 nM.

For `Cc1ncc(-c2noc3c(Cl)c4c(nc23)CC2(C(=O)NC(=O)NC2=O)[C@H]2[C@H](C)O[C@H](C)CN42)s1` (relative stereo) [Example 117, (2R,4S,4aS)-rel-11-Chloro-2,4-dimethyl-8-(2-methylthiazol-5-yl)-2,4,4a,6-tetrahydro-1H,1′H-spiro[isoxazolo[4,5-g][1,4]oxazino[4,3-a][1,5]naphthyridine-5,5′-pyrimidine]-2′,4′,6′(3′H)-trione], the IC50 came to 2000 nM.

For the molecule `C[C@@H]1CN2c3c(nc4c(-c5cnc(Br)s5)noc4c3Cl)CC3(C(=O)NC(=O)NC3=O)[C@H]2[C@H](C)O1` (relative stereo) [Example 119, (2R,4S,4aS)-rel-11-chloro-2,4-dimethyl-8-(2-bromothiazol-5-yl)-2,4,4a,6-tetrahydro-1H,1′H-spiro[isoxazolo[4,5-g][1,4]oxazino[4,3-a][1,5]naphthyridine-5,5′-pyrimidine]-2′,4′,6′(3′H)-trione], the IC50 was 3100 nM.

On to `C[C@@H]1CN2c3c(nc4c(-c5ccc(C#N)c(F)c5)noc4c3Cl)CC3(C(=O)NC(=O)NC3=O)[C@H]2[C@H](C)O1` (relative stereo) [Example 121, 4-((2R,4S,4aS)-rel-11-chloro-2,4-dimethyl-2′,4′,6′-trioxo-2,2′,3′,4,4a,4′,6,6′-octahydro-1H,1′H-spiro[isoxazolo[4,5-g][1,4]oxazino[4,3-a][1,5]naphthyridine-5,5′-pyrimidine]-8-yl)-2-fluorobenzonitrile], for which the IC50 is 600 nM.

As for `Cc1cnc(-c2noc3c(Cl)c4c(nc23)CC2(C(=O)NC(=O)NC2=O)[C@H]2[C@H](C)O[C@H](C)CN42)s1` (relative stereo) [Example 122, (2R,4S,4aS)-rel-11-Chloro-2,4-dimethyl-8-(5-methylthiazol-2-yl)-2,4,4a,6-tetrahydro-1H,1′H-spiro[isoxazolo[4,5-g][1,4]oxazino[4,3-a][1,5]naphthyridine-5,5′-pyrimidine]-2′,4′,6′(3′H)-trione], the IC50 was determined as 500 nM.

`C[C@@H]1CN2c3c(nc4c(-c5ccc(C(N)=O)nc5)noc4c3Cl)CC3(C(=O)NC(=O)NC3=O)[C@H]2[C@H](C)O1` (relative stereo) [Example 123, 5-((2R,4S,4aS)-rel-11-chloro-2,4-dimethyl-2′,4′,6′-trioxo-2,2′,3′,4,4a,4′,6,6′-octahydro-1H,1′H-spiro[isoxazolo[4,5-g][1,4]oxazino[4,3-a][1,5]naphthyridine-5,5′-pyrimidine]-8-yl)picolinamide]: the IC50 came out at 5800 nM.

As for `CNC(=O)c1noc2c(Cl)c3c(nc12)CC1(C(=O)NC(=O)NC1=O)[C@H]1[C@H](C)O[C@H](C)CN31` (relative stereo) [Example 125, (2R,4S,4aS)-rel-11-Chloro-N,2,4-trimethyl-2′,4′,6′-trioxo-2,2′,3′,4,4a,4′,6,6′-octahydro-1H,1′H-spiro[isoxazolo[4,5-g][1,4]oxazino[4,3-a][1,5]naphthyridine-5,5′-pyrimidine]-8-carboxamide], the IC50 is 700 nM.

For `CCNC(=O)c1noc2c(Cl)c3c(nc12)CC1(C(=O)NC(=O)NC1=O)[C@H]1[C@H](C)O[C@H](C)CN31` (relative stereo) [Example 126, (2R,4S,4aS)-rel-11-chloro-N-ethyl-2,4-dimethyl-2′,4′,6′-trioxo-2,2′,3′,4,4a,4′,6,6′-octahydro-1H,1′H-spiro[isoxazolo[4,5-g][1,4]oxazino[4,3-a][1,5]naphthyridine-5,5′-pyrimidine]-8-carboxamide], the IC50 was 500 nM.

For the molecule `C[C@@H]1CN2c3c(nc4c(C(=O)NC(C)(C)C)noc4c3Cl)CC3(C(=O)NC(=O)NC3=O)[C@H]2[C@H](C)O1` (relative stereo) [Example 128, (2R,4S,4aS)-rel-N-tert-butyl-11-chloro-2,4-dimethyl-2′,4′,6′-trioxo-2,2′,3′,4,4a,4′,6,6′-octahydro-1H,1′H-spiro[isoxazolo[4,5-g][1,4]oxazino[4,3-a][1,5]naphthyridine-5,5′-pyrimidine]-8-carboxamide], the IC50 was 19000 nM.

As to `C[C@@H]1CN2c3c(nc4c(C(=O)NCC(C)(C)C)noc4c3Cl)CC3(C(=O)NC(=O)NC3=O)[C@H]2[C@H](C)O1` (relative stereo) [Example 129, (2R,4S,4aS)-rel-11-Chloro-2,4-dimethyl-N-neopentyl-2′,4′,6′-trioxo-2,2′,3′,4,4a,4′,6,6′-octahydro-1H,1′H-spiro[isoxazolo[4,5-g][1,4]oxazino[4,3-a][1,5]naphthyridine-5,5′-pyrimidine]-8-carboxamide], the IC50 came to 31000 nM.

Regarding `C[C@@H]1CN2c3c(nc4c(C(=O)N5CC(F)(F)C5)noc4c3Cl)CC3(C(=O)NC(=O)NC3=O)[C@H]2[C@H](C)O1` (relative stereo) [Example 130, (2R,4S,4aS)-rel-11-Chloro-8-(3,3-difluoroazetidine-1-carbonyl)-2,4-dimethyl-2,4,4a,6-tetrahydro-1H,1′H-spiro[isoxazolo[4,5-g][1,4]oxazino[4,3-a][1,5]naphthyridine-5,5′-pyrimidine]-2′,4′,6′(3′H)-trione], the IC50 was found to be 30000 nM.

On to `C[C@@H]1CN2c3c(nc4c(C(=O)NCc5ccccc5)noc4c3Cl)CC3(C(=O)NC(=O)NC3=O)[C@H]2[C@H](C)O1` (relative stereo) [Example 131, (2R,4S,4aS)-rel-N-benzyl-11-chloro-2,4-dimethyl-2′,4′,6′-trioxo-2,2′,3′,4,4a,4′,6,6′-octahydro-1H,1′H-spiro[isoxazolo[4,5-g][1,4]oxazino[4,3-a][1,5]naphthyridine-5,5′-pyrimidine]-8-carboxamide], for which the IC50 came to 4400 nM.

Regarding `C[C@@H]1CN2c3c(nc4c(C(=O)NCc5ccc(C#N)cc5)noc4c3Cl)CC3(C(=O)NC(=O)NC3=O)[C@H]2[C@H](C)O1` (relative stereo) [Example 132, (2R,4S,4aS)-rel-11-chloro-N-(4-cyanobenzyl)-2,4-dimethyl-2′,4′,6′-trioxo-2,2′,3′,4,4a,4′,6,6′-octahydro-1H,1′H-spiro[isoxazolo[4,5-g][1,4]oxazino[4,3-a][1,5]naphthyridine-5,5′-pyrimidine]-8-carboxamide], the IC50 worked out at 7700 nM.

`C[C@@H]1CN2c3c(nc4c(C(=O)NCc5cccc(C#N)c5)noc4c3Cl)CC3(C(=O)NC(=O)NC3=O)[C@H]2[C@H](C)O1` (relative stereo) [Example 133, (2R,4S,4aS)-rel-11-chloro-N-(3-cyanobenzyl)-2,4-dimethyl-2′,4′,6′-trioxo-2,2′,3′,4,4a,4′,6,6′-octahydro-1H,1′H-spiro[isoxazolo[4,5-g][1,4]oxazino[4,3-a][1,5]naphthyridine-5,5′-pyrimidine]-8-carboxamide]: the IC50 was 13000 nM.

For the molecule `CCOC(=O)c1noc2c(F)c3c(cc12)CC1(C(=O)NC(=O)NC1=O)[C@H]1[C@H](C)O[C@H](C)CN31` (relative stereo) [Example 134, (2R,4S,4aS)-rel-ethyl 11-fluoro-2,4-dimethyl-2′,4′,6′-trioxo-2,2′,3′,4,4a,4′,6,6′-octahydro-1H,1′H-spiro[isoxazolo[4,5-g][1,4]oxazino[4,3-a]quinoline-5,5′-pyrimidine]-8-carboxylate], the IC50 was determined as 1000 nM.

With `C[C@@H]1CN2c3c(cc4c(C(=O)N5CCOCC5)noc4c3F)CC3(C(=O)NC(=O)NC3=O)[C@H]2[C@H](C)O1` (relative stereo) [Example 135, (2R,4S,4aS)-rel-11-fluoro-2,4-dimethyl-8-(morpholine-4-carbonyl)-2,4,4a,6-tetrahydro-1H,1′H-spiro[isoxazolo[4,5-g][1,4]oxazino[4,3-a]quinoline-5,5′-pyrimidine]-2′,4′,6′(3′H)-trione], the IC50 worked out at 3300 nM.

Take `C[C@@H]1CN2c3c(cc4c(C(=O)N(C)C)noc4c3F)CC3(C(=O)NC(=O)NC3=O)[C@H]2[C@H](C)O1` (relative stereo) [Example 136, (2R,4S,4aS)-rel-11-fluoro-N,N,2,4-tetramethyl-2′,4′,6′-trioxo-2,2′,3′,4,4a,4′,6,6′-octahydro-1H,1′H-spiro[isoxazolo[4,5-g][1,4]oxazino[4,3-a]quinoline-5,5′-pyrimidine]-8-carboxamide]: the IC50 was determined as 2800 nM.

In the case of `CON(C)C(=O)c1noc2c(F)c3c(cc12)CC1(C(=O)NC(=O)NC1=O)[C@H]1[C@H](C)O[C@H](C)CN31` (relative stereo) [Example 137, (2R,4S,4aS)-rel-11-fluoro-N-methoxy-N,2,4-trimethyl-2′,4′,6′-trioxo-2,2′,3′,4,4a,4′,6,6′-octahydro-1H,1′H-spiro[isoxazolo[4,5-g][1,4]oxazino[4,3-a]quinoline-5,5′-pyrimidine]-8-carboxamide], the IC50 was 2300 nM.

Source of the values: patent US9040528B2, “Chemical compounds 542” (AstraZeneca AB, priority 2008, dated 2015).
